In patent publication US4132731A, “Novel iodized isophthalamic acid compounds” (Schering Aktiengesellschaft, priority 1976, dated 1979):

How the values were obtained:
[1] = general compatibility (LD50 i.v.) in rats; conditions: rat, in vivo, iv
rats = experiment: neural compatibility: intracerebral compatibility / Valzelli value (ED50) in rats; conditions: aqueous meglumine salt solutions, confidence range p 0.05
[2] = rats, aqueous meglumine salt solutions

Row | Compound | LD50 [1] | Valzelli Value (ED50) and Confidence Range (rats) | LD50 [1, 2]
1 | CC(=O)Nc1c(I)c(C(=O)O)c(I)c(C(=O)NCCO)c1I [Compound 1, ioxithalamic acid, reference compound] | 15200 mg/kg | 12.3 (10.3-14.4) mg. I/kg. | 
2 | COCC(=O)Nc1c(I)c(C(=O)O)c(I)c(C(=O)NC(C)(C)CO)c1I [Compound 2, N-(2-hydroxy-1,1-dimethylethyl)-2,4,6-triiodo-5-methoxyacetamidoisophthalamic acid] |  | 71.4 (61.4-99.9) mg. I/kg. | 20000 mg/kg
3 | COCC(=O)Nc1c(I)c(C(=O)O)c(I)c(C(=O)NCC(C)O)c1I (centres unmarked) [Compound 3, N-(2-Hydroxypropyl)-2,4,6-triiodo-5-methoxyacetamidoisophthalamic Acid] |  | 44.6 (35.5-52.2) mg. I/kg. | 19000 mg/kg
4 | COCC(=O)Nc1c(I)c(C(=O)O)c(I)c(C(=O)NCCCO)c1I [Compound 4, N-(3-Hydroxypropyl)-2,4,6-triiodo-5-methoxyacetamidoisophthalamic Acid] |  | 43.1 (32.6-50.9) mg. I/kg. | 16300 mg/kg
5 | COCC(=O)Nc1c(I)c(C(=O)O)c(I)c(C(=O)NCCO)c1I [Compound 5, N-(2-Hydroxyethyl)-2,4,6-triiodo-5-methoxyacetamidoisophthalamic Acid] |  | 44.9 (36.7-51,8) mg. I/kg. | > 18600 mg/kg
6 | COCC(=O)Nc1c(I)c(C(=O)O)c(I)c(C(=O)NC(C)(C)CCO)c1I [Compound 6, N-(3-hydroxy-1,1-dimethylpropyl)-2,4,6-triiodo-5-methoxyacetamidoisophthalamic acid] |  | 67.2 (58.7-84.8) mg. I/kg. | 18400 mg/kg
7 | CC(=O)Nc1c(I)c(C(=O)O)c(I)c(C(=O)NCC(C)O)c1I (centres unmarked) [Compound 7] | 18200 mg/kg | 50.7 (44.3-56.6) mg. I/kg. | 
